This note sets out measurements from patent US8853406B2, “Substituted phenylenediamines as inhibitors of the interaction between MDM2 and P53” (Janssen Pharmaceutica NV, priority 2007, dated 2014).

For this assay, the system named is human U87 gliomoblastoma xenograft tumors. Nature of the assay: In vivo anti tumour effects, U87 glioblastoma xenograft. More on the design: species or system NMRI Nude mice. Conditions: for tumor growth of pre-established U87 xenograft: 21 days; for in vivo antitumoral activity: s.c. U87 xenograft in NMRI Nude mice. The procedure:
FIG. 7 is the Antitumoral effect of compound No. 1 in U87 Glioblastoma Xenograft Tumors in NMRI Nude mice: • On day 0, male NMRI Nude mice were inoculated with a single subcutaneous injection into the inguinal region with human U87 Glioblastoma tumor cells ([…]). On day 8, mice were treated p.o. with vehicle (control group; 10% hydroxypropyl-β-cyclodextrin (□)) or vehicle containing Co No. 1 at either 2.5 mg/kg (▴), 5 mg/kg (▾), 10 mg/kg (♦) or 20 mg/kg (●) for 21 days (QD×21). Subcutaneous tumor volumes and body weights were measured twice weekly, until end of study and results represented as relative tumor volumes (mm^3). Dosing period indicated under x-axis.
The minimal efficacious dose (according to the NCI standard) in this model was 5 mg/kg.
Immuno-deficient (athymic) male NMRI Nude (Nu/Nu) mice (20-25 g were obtained from Janvier, France) were used for theses studies. Initial weight was approximately […]. All animals were maintained under SPF “full barrier” conditions with free access to food and water. Mice were group housed under a 12-h light:dark cycle (lights on at 06:00 h) at a temperature of 19 to 22° C. and 35 to 40% humidity in Techniplast type-3 IVC cages. Mice were fed a standard Laboratory chow. All experiments were carried out in accordance with the European Communities Council Directives (86/609/EEC) and were approved by the local ethical committee. For an established tumor xenograft model (tumor volume ˜200 mm^3), mice were randomized according to tumor volumes, with 10 to 14 mice per treatment group.
The human U87 glioma tumor cell line was derived from a patient. Cells were cultured at 37° C. in a humidified atmosphere (5% CO2, 95% air), in DMEM medium supplemented with 2 mM L-glutamine, 2.0 mM sodium pyruvate, 25 units/ml penicillin/25 μg/ml streptomycin and 10% fetal bovine serum. Cells were maintained as cell monolayer cultures, being passaged twice weekly at 3×10^6 cells per T175 flask using the following procedure. Briefly cells were washed with PBS (without Mg^2+, Ca^2+), before addition of trypsin-EDTA to the culture flasks. After detachment of cells the trypsin-EDTA was inactivated by addition of complete medium. Cell suspension was then transferred to 50 ml Falcon tube and centrifuged for 3 min at 1200 rpm. Medium was aspirated, with the cells being re-suspended in an appropriate volume of complete medium. The cells were counted in a haemocytometer and their viability was assessed by 0.25% trypan blue exclusion. An appropriate volume of cell suspension was then added to either a new T175 culture flask(s) or roller bottle containing fresh medium. For large scale-up growth of U87 tumor cells, an appropriate number of roller bottles were seeded with 0.5 to 1×10^7 cells 1 week prior to inoculation of mice. The medium was changed twice during this period, with the last change being the day prior to cell injection. Cells were collected as described above, with the exception that after centrifugation, the cells were re-suspended in cold (4° C.) serum-free medium. Mice were injected in the inguinal region with 1×10^7 cells total in a 200 μl volume.
Human U87 glioma cells were injected directly into the inguinal region of the male NMRI Nude mice (1×10^7 cells/200 μl/animal) on day 0 (D0). […] Tumor size and body weights were measured twice weekly, with mice monitored daily for clinical signs of toxicity for the duration of the treatment. […]

Regarding `Cc1cc(Nc2ccnc3c2CCC3O)ccc1NCCc1c[nH]c2c(C)cccc12` (single isomer, unassigned) [Compound No. 1], the “tumor growth of pre-established U87 xenograft” value was “complete tumor growth inhibition and regression” (10 mg/kg oral); “complete tumor growth inhibition and regression” (20 mg/kg oral). Besides, the “minimal efficacious dose (according to the NCI standard)” value (U87 xenograft, oral QD x 21) amounted to 5 mg/kg. Further, the “in vivo antitumoral activity” value (listed as Co No. 1) is “potent inhibition in growth”.

Turning to `Cc1cc(Nc2ccnc3c2CCC3O)ccc1NCCc1c[nH]c2c(C)cccc12` (single isomer, unassigned) [Compound No. 2], the “in vivo antitumoral activity” value is “showed in vivo antitumoral activity”.
